This passage reports TGI results from PubChem BioAssay (NCI).

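48-hour exposure; five concentrations; linearly interpolated endpoints. TGI: total growth inhibition.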

Common to all, as to assay: NCI tumour cell line growth inhibition, 48 h
Assay [1] has as its system LXFL 529 NSCLC.
Assay [2] has as its system DLD-1 colon.
Assay [3] deals with XF 498 CNS.
For assay [4], the system named is SNB-78 CNS.
In assay [5] the test system is P388/ADR leukemia.
The test system of assay [6] is SN12K1 renal.
Assay [7] deals with P388 leukemia.
The test system of assay [8] is HOP-18 NSCLC.

`O=C(O)c1cc2sc(C(=O)O)cc2s1`: the TGI in assay [1], in assay [2], in assay [3] and in assay [4] was above 100 µM each time.

Consider `CCCCCCCCC[C@@H]1C[C@H](O)[C@H](Cc2ccccc2)N1C(=O)OC(C)(C)C`, for which the TGI in assay [1] worked out at 30.9 µM; in assay [2], 33.8 µM; in assay [3], 37 µM; in assay [4], 41.3 µM.

On to `CSc1nc(NC2OC(CO)C(O)C(O)C2O)c(N)c(=O)[nH]1` (stereo unspecified), for which the TGI in assay [5], in assay [6], in assay [7], in assay [8], in assay [2] and in assay [3] was above 100 µM each time. Further, the TGI in assay [4] was above 100 µM.

In the case of `O=[N+]([O-])c1cnccc1-n1nnc2ccccc21`, the TGI in assay [6] was above 95.5 µM; in assay [7], 30.3 µM; in assay [8], above 100 µM; in assay [2], above 96.6 µM; in assay [3], 27.1 µM; in assay [4], above 100 µM.

In the case of `O=c1n(CC2CO2)c2ccccc2n1CC1CS1` (stereo unspecified), the TGI in assay [1] and in assay [3] was above 100 µM throughout.

With `COc1ccc(Nc2cnc3cc(N)ccc3n2)cc1OC`, the TGI in assay [1], in assay [2] and in assay [3] was above 100 µM each time.
